Data on 70 molecules can be found in the Bradley open melting point set (2014).

Structures are written as SMILES. Where “and” joins values, the source holds several entries; their conditions need not be identical. Identical values can stand only once.

Regarding `CCCCCCCCCCSc1cc(N(NC(=O)OC(C)(C)C)C(=O)OC(C)(C)C)cc(SCCCCCCCCCC)c1SCCCCCCCCCC`, the melting point was found to be 50.5 °C.
On to `N[C@H](CO)Cc1ccccc1` [L-phenylalaninol], for which the melting point came out at 92 °C.
The figure for `CON(/C=C1\C(=O)C2(C)CCC1C2(C)C)c1ccccc1` (stereo not given) is 76 °C.
The same measure for `CCc1ncc[nH]1` [2-ethylimidazole]: 82 °C.
The same measure for `O=C(OCc1ccccc1)c1ccc(B(O)O)cc1` [4-(benzyloxycarbonyl)benzeneboronic acid]: 190 °C; for `CN(C)C=O` [N,N-Dimethylformamide]: -61 °C.
Regarding `CCn1cc(C(=O)O)c(=O)c2cc(F)c(N3CCNC(C)C3)c(F)c21` (stereo not given) [lomefloxacin], the melting point was 240 °C.
The same measure for `NCCc1ccccc1` [2-phenylethylamine]: -60 °C; for `CCOC(=O)c1ccccc1C#N` [ethyl_o-cyanobenzoate]: 68 °C.
`CCCCP(CCCC)CCCC` [tri-n-butylphosphine] yielded a melting point of -65 °C.
On to `Nc1ccc(CO)cc1` [p-amino_benzyl_alcohol], for which the melting point is 75 °C.
Regarding `[2H]C([2H])([2H])S(=O)C([2H])([2H])[2H]` [Bis[(~2~H_3_)methyl] sulfoxide], the melting point came to 18.4 °C.
The figure for `CS(=O)(=O)OS(C)(=O)=O` [methanesulfonic anhydride] is 67 °C; for `COC1=CC(=O)CC(C)C12Oc1c(Cl)c(OC)cc(OC)c1C2=O` (stereo not given) [griseofulvin] it is 219 °C.
The molecule `CCCCCCCCCCCCO` [1-dodecanol] had a melting point of 26 °C.
`c1cc(-c2ccncc2)ccn1` [4,4'-bipyridine] showed a melting point of 113 °C.
Take `CCC(=O)OC` [Methyl propionate]: the melting point is -88 °C.
`O=C(c1ccc(F)cc1)c1ccccc1F` [2,4'-difluorobenzophenone] returned a melting point of 23 °C.
The figure for `CC#N` [Acetonitrile] is -46 °C; for `CCCC(=O)OC` [Methyl butyrate] it is -95 °C.
On to `O=C(OCc1ccccc1)c1ccccc1` [benzyl_benzoate], for which the melting point is 19 °C.
The same measure for `CCC(C)(C)O` [2-methyl-2-butanol]: -8 °C.
`Cc1cc(C)n(CN(CCO)Cn2nc(C)cc2C)n1` [2-{bis[(3,5-dimethyl-1H-pyrazol-1-yl)methyl]amino}ethanol] yielded a melting point of 83 °C.
The same measure for `COC(=O)C1C(c2ccccc2)C(C#N)=C(C(SC)SC)C1(O)c1ccccc1` (stereo not given): 165 °C; for `CC(Br)Br` [1,1-dibromoethane]: -63 °C; for `COc1cc(Cl)ccc1C(=O)O` [4-chloro-2-methoxybenzoic acid]: 147 °C.
The same measure for `c1cc2ccc3cccc4ccc(c1)c2c34` [Pyrene]: 150 °C.
The molecule `Oc1ccccc1` [phenol] yielded a melting point of 41 °C.
On to `SCc1ccccc1` [benzyl mercaptan], for which the melting point was -29 °C and -29.2 °C.
`CCCCCCCN` [1-aminoheptane]: the melting point was -18 °C.
`ClC(Cl)(Cl)c1ccccc1` [(Trichloromethyl)benzene]: the melting point was -5 °C.
As to `CC(C)Br` [2-bromopropane], the melting point is -89 °C.
In turn, `NC(=O)c1ccc(C=O)cc1` [p-formyl_benzamide] displayed a melting point of 75 °C.
The molecule `N#CCC#N` [malononitrile] yielded a melting point of 34 °C.
In the case of `COc1ccc(C(=O)O)cc1` [4-methoxybenzoic acid], the melting point was 184 °C.
In turn, `ClCc1ccccc1Cl` [2-chlorobenzyl chloride] displayed a melting point of -13 °C.
Molecule `O=C(CCl)Nc1ccccc1[N+](=O)[O-]` [2-chloro-2'-nitroacetanilide] gave a melting point of 88 °C.
The figure for `C=CC` [Propylene] is -185 °C; for `c1ccc2c(c1)Cc1ccccc1-2` [Fluorene] it is 116 °C; for `NC(N)=Nc1nc(CSCCC(N)=NS(N)(=O)=O)cs1` [famotidine] it is 163 °C.
For `Clc1ccc2c(Cl)ccnc2c1` [4,7-dichloroquinoline], the melting point was 85 °C.
Consider `[O-][n+]1ccccc1S` [Pyridine-2-thiol 1-oxide], for which the melting point came to 70.5 °C.
As for `Oc1ccccc1-c1ccccc1O` [2,2'-dihydroxybiphenyl], the melting point worked out at 109 °C.
In turn, `Cc1c[nH]c(=O)[nH]c1=O` [thymine] registered a melting point of 317 °C.
The same measure for `CCCCCCCCCCCCO` [Dodecan-1-ol]: 24 °C; for `COc1ccc(Cl)cc1N` [5-chloro-o-anisidine]: 83 °C.
On to `Nc1ccc(Cl)cc1[N+](=O)[O-]` [4-chloro-2-nitroaniline], for which the melting point stood at 116 °C.
`Oc1ccc2ccccc2c1Br` [1-bromo-2-naphthol] came in with a melting point of 79 °C.
`CCCOC(C)=O` [Propyl Acetate]: the melting point is -93 °C.
As to `Nc1ccc(C(=O)O)c(O)c1` [Aminosalicylic Acid], the melting point was determined as 150 °C.
For `CNC(=O)Oc1ccccc1OC(C)C` [propoxur], the melting point worked out at 91.5 °C.
`C=C(C)CC(C)(C)C` [2,4,4-trimethyl-1-pentene]: the melting point was -93 °C.
Take `CC(C)(C)CO` [neopentyl alcohol]: the melting point was 54 °C.
In turn, `COc1ccc(C=O)cn1` [6-methoxypyridine-3-carboxaldehyde] had a melting point of 51 °C.
For the molecule `COc1ccc2[nH]c([S+]([O-])Cc3ncc(C)c(OC)c3C)nc2c1` (stereo not given) [Omeprazole], the melting point was 156 °C.
The molecule `CCOCC` [diethyl ether] showed a melting point of -116 °C.
Regarding `O=C1CC(=O)c2ccccc21` [1,3-indanedione], the melting point came out at 130 °C.
`CCN(CC)CCNC(=O)c1cc(Cl)c(N)cc1OC` [metoclopramide] displayed a melting point of 147 °C.
Consider `COc1ccc(C(=O)CC#N)cc1` [4-methoxybenzoylacetonitrile], for which the melting point was determined as 128 °C.
In turn, `O=C(C(=O)c1cccs1)c1cccs1` [2,2'-thenil] showed a melting point of 83 °C.
Consider `N#CCc1ccccc1C#N` [o-cyano_phenylacetonitrile], for which the melting point was found to be 80 °C.
`N#CCCCC#N` [glutaronitrile] returned a melting point of -29 °C.
`CC(C)(C(=O)O)c1ccccc1` [alpha,alpha-dimethylphenylacetic acid] had a melting point of 81 °C.
The figure for `CC(=O)c1ccc(Cl)s1` [2-acetyl-5-chlorothiophene] is 46 °C; for `O=C(Oc1ccccc1)c1ccccc1O` [phenyl salicylate] it is 42.2 °C; for `OCc1ccc(-c2ccccc2)cc1` [p-phenylbenzyl alcohol] it is 105 °C.
`CC(=O)c1cc(C)cc(C)c1` [3',5'-dimethylacetophenone]: the melting point stood at 20 °C.
In turn, `c1ccc(OCCOc2ccccc2)cc1` [1,2-diphenoxyethane] came in with a melting point of 95 °C.
Molecule `CCOC(=O)c1ccc2c(c1)no[n+]2[O-]` [ethyl benzofuroxan-5-carboxylate] gave a melting point of 67 °C.
`Cn1ccc(=O)n(C)c1=O` [1,3-dimethyluracil] showed a melting point of 121 °C.

For orientation: melting point means the temperature of the solid-liquid transition.
